Values quoted from earlier work in patent US20210069377A1, “TISSUE SCAFFOLD” (priority 2018, published 2021).

Details: at 20° C. and 1 atm

O=C(CO)[C@@H](O)[C@H](O)[C@H](O)CO [Fructose]
solubility: about 375 g/100 g water
